Patent US12221453B2, “Substituted pyrazolo[5′,1′:2,3]pyrimido[5,4-b][1,4]oxazines as TYK2 inhibitors” (TAKEDA PHARMACEUTICAL COMPANY LIMITED, priority 2018, dated 2025)

What follows are compounds tested on IL-12 induced STAT4 phosphorylation mediated by TYK2/JAK2 (assay: IL-12 induced pSTAT4 in human PBMC). Conditions: 1 hr compound, 1.7 ng/mL IL-12 for 30 minutes.
Assay type: cell-based
Protocol: Human PBMC were isolated from buffy coat and are stored frozen for assays as needed. […] 15 μL of compound or DMSO was added to the well at the desired concentrations and incubated at 1 hr at 37° C. 15 μL of stimulus (final concentration of 1.7 ng/mL IL-12) was added for 30 minutes prior to pSTAT4 and total STAT4 analysis using cell lysates prepared and analyzed by MSD reagents as per manufacturer protocol. The final DMSO concentration of compound in the assay was 0.1%. The IL-12 induced pSTAT4 assay evaluates the inhibition of IL-12 induced STAT4 phosphorlyation mediated by TYK2/JAK2 ([…] complex).

| SMILES | IC50 |
| --- | --- |
| CNc1cc(Nc2cccn([C@@H]3CCC[C@@H]3O)c2=O)nc2c(C(=O)NC3CCC3(F)F)cnn12 (stereo partly shown) [Compound I-303] | < 0.1 µM |
| CNc1cc(-c2cn(CC(=O)N(C)C)c3ncccc23)nc2c(C(=O)N[C@H]3CC[C@@H]3OC)cnn12 [Compound I-921] | < 0.1 µM |
| CNc1cc(Nc2cccn([C@H]3C[C@@H](OC)C3)c2=O)nc2c(C(=O)NC3CC[C@@H]3OC)cnn12 (stereo partly shown) [Compound I-780] | < 0.1 µM |
| CNc1cc(-c2cn(CC(=O)N3CCCC3)c3ncccc23)nc2c(C(=O)N[C@H]3CC[C@@H]3OC)cnn12 [Compound I-965] | < 0.1 µM |
| CNc1cc(Nc2cccn(C3COC3)c2=O)nc2c(C(=O)NC3CCC3(F)F)cnn12 (stereo not shown) [Compound I-280] | < 0.1 µM |
| CNc1ccc(-c2cc(NC)n3ncc(C(=O)N[C@H]4CC[C@H]4F)c3n2)n2ccnc12 [Compound I-784] | < 0.1 µM |
| CNc1cc(Nc2cccn([C@H]3[C@@H]4COC[C@@H]43)c2=O)nc2c(C(=O)N[C@H]3CCC3(F)F)cnn12 [Compound I-307] | < 0.1 µM |
| CNc1cc(-c2cn([C@H]3COC[C@@H]3OC)c3ncccc23)nc2c(C(=O)N[C@H]3CC[C@@H]3OC)cnn12 [Compound I-634] | < 0.1 µM |
| CNc1cc(-c2cn([C@H]3C[C@@H](O)C3)c3ncccc23)nc2c(C(=O)N[C@H]3CC[C@@H]3F)cnn12 [Compound I-511] | < 0.1 µM |
| CNc1cc(-c2cn([C@H]3C[C@@H](O)C3)c3ncccc23)nc2c(C(=O)NC3CC[C@H]3O)cnn12 (stereo partly drawn) [I-111, N-((cis-1,2)-2-Hydroxycyclobutyl)-5-(1-((1s,3R)-3-hydroxycyclobutyl)-1H-pyrrolo[2,3-b]pyridin-3-yl)-7-(methylamino)pyrazolo[1,5-a]pyrimidine-3-carboxamide] | 0.1 to 0.5 µM |
| CNc1cc(-c2cn([C@@H]3COC[C@H]3OC)c3ccccc23)nc2c(C(=O)N[C@@H]3CC[C@H]3OC)cnn12 [Compound I-746] | < 0.1 µM |
| CNc1cc(Nc2cccn([C@H]3C[C@H](OC)C3)c2=O)nc2c(C(=O)N[C@H]3CC[C@@H]3OC)cnn12 [Compound I-255] | < 0.1 µM |
| CNc1cc(-c2cn([C@H]3[C@@H]4COC[C@@H]43)c3ncccc23)nc2c(C(=O)N[C@H]3CC[C@@H]3O)cnn12 [Compound I-915] | < 0.1 µM |
| CNc1cc(Nc2cccn([C@@H]3CC[C@H]3OC)c2=O)nc2c(C(=O)N[C@H]3CC[C@H]3O)cnn12 [Compound I-243] | < 0.1 µM |
| CNc1cc(Nc2cccn([C@H]3[C@@H]4COC[C@@H]43)c2=O)nc2c(C(=O)N[C@@H]3CC[C@H]3OC)cnn12 [Compound I-262] | < 0.1 µM |
| CNc1cc(-c2cnc3n([C@H]4COC[C@@H]4OC)cccc2-3)nc2c(C(=O)N[C@@H]3CC[C@@H]3F)cnn12 [Compound I-840] | < 0.1 µM |
| CNc1cc(-c2cn([C@@H]3CCOC3)c3ncccc23)nc2c(C(=O)N[C@H]3CC[C@@H]3OC)cnn12 [Compound I-610] | < 0.1 µM |
| CNc1cc(Nc2cccn([C@H]3CC[C@H](OC)CC3)c2=O)nc2c(C(=O)NC3CC[C@@H]3F)cnn12 (stereo partly shown) [Compound I-224] | < 0.1 µM |
| CNc1cc(-c2cn([C@@H]3CCOC[C@@H]3OC)c3ncccc23)nc2c(C(=O)N[C@H]3CC[C@@H]3F)cnn12 [Compound I-798] | < 0.1 µM |
| CNc1cc(-c2cnc3n(CC(C)(C)O)cccc2-3)nc2c(C(=O)N[C@H]3CC[C@@H]3OC)cnn12 [Compound I-983] | < 0.1 µM |

| SMILES | IC50 |
| --- | --- |
| CNc1cc(-c2cn([C@H]3CCOC[C@H]3OC)c3ncccc23)nc2c(C(=O)N[C@@H]3CCC3(F)F)cnn12 [Compound I-811] | < 0.1 µM |
| CNc1cc(Nc2cccn([C@H]3CC[C@H]3O)c2=O)nc2c(C(=O)N[C@H]3CCC3(F)F)cnn12 [Compound I-287] | < 0.1 µM |
| CNc1cc(Nc2cccn([C@@H]3C[C@H]3F)c2=O)nc2c(C(=O)N[C@@H]3CC[C@H]3OC)cnn12 [I-53, 5-((1-((1R,2R)-2-Fluorocyclopropyl)-2-oxo-1,2-dihydropyridin-3-yl)amino)-N-((1R,2R)-2-methoxycyclobutyl)-7-(methylamino)pyrazolo[1,5-a]pyrimidine-3-carboxamide] | < 0.1 µM |
| CNc1cc(-c2cn([C@@H]3CCOC[C@@H]3OC)c3ncccc23)nc2c(C(=O)N[C@H]3CCC3(F)F)cnn12 [Compound I-703] | < 0.1 µM |
| CNc1cc(-c2cn([C@@H]3COC[C@H]3OC)c3ncccc23)nc2c(C(=O)NC3CC[C@H]3F)cnn12 (stereo partly shown) [Compound I-531] | < 0.1 µM |
| CNc1cc(-c2cn([C@@H]3CN(C)C[C@H]3OC)c3ncccc23)nc2c(C(=O)NC3CC[C@@H]3OC)cnn12 (stereo partly shown) [Compound I-645] | < 0.1 µM |
| CNc1cc(Nc2cccn([C@H]3CC[C@H]3O)c2=O)nc2c(C(=O)NC3CC[C@@H]3F)cnn12 (stereo partly shown) [Compound I-167] | < 0.1 µM |
| CNc1cc(-c2cn([C@@H]3CN(C)C[C@H]3F)c3ncccc23)nc2c(C(=O)N[C@H]3CC[C@@H]3OC)cnn12 [Compound I-643] | < 0.1 µM |
| CC(C)n1cc(-c2nc3c(C(=O)N[C@H]4CC[C@H]4O)cnn3c3c2OCCN3)c2cccnc21 [Compound I-754] | < 0.1 µM |
| CNc1cc(-c2cnc3n(CC(=O)N4CC5(COC5)C4)cccc2-3)nc2c(C(=O)N[C@H]3CC[C@@H]3OC)cnn12 [Compound I-1012] | > 1 µM |
| CNc1cc(Nc2cccn([C@H]3C[C@H](F)C3)c2=O)nc2c(C(=O)N[C@@H]3CC[C@H]3OC)cnn12 [I-57, 5-((1-((1r,3R)-3-Fluorocyclobutyl)-2-oxo-1,2-dihydropyridin-3-yl)amino)-N-((1R,2R)-2-methoxycyclobutyl)-7-(methylamino)pyrazolo[1,5-a]pyrimidine-3-carboxamide] | < 0.1 µM |
| CNc1cc(-c2cnc3n([C@H]4COC[C@@H]4O)cccc2-3)nc2c(C(=O)N[C@H]3CC[C@@H]3F)cnn12 [Compound I-828] | < 0.1 µM |
| CNc1cc(-c2cn([C@H]3C[C@@H](O)C3)c3ncccc23)nc2c(C(=O)NC3CC3)cnn12 [Compound I-495] | < 0.1 µM |
| CNc1cc(-c2cnc3n([C@@H]4COC[C@H]4O)cccc2-3)nc2c(C(=O)NC3CC[C@@H]3F)cnn12 (stereo partly shown) [Compound I-827] | < 0.1 µM |
| O=C(N[C@H]1CC[C@@H]1F)c1cnn2c3c(c(-c4cn([C@H]5C[C@H](O)C5)c5ncccc45)nc12)OCCN3 [Compound I-757] | < 0.1 µM |
| CC(C)n1cc(-c2nc3c(C(=O)NC4CC[C@H]4O)cnn3c3c2OCCN3)c2cccnc21 (stereo partly shown) [Compound I-753] | < 0.1 µM |
| CNc1cc(Nc2cccn(-c3ocnc3C)c2=O)nc2c(C(=O)NC3CC[C@@H]3F)cnn12 (stereo partly shown) [Compound I-185] | < 0.1 µM |
| CNc1cc(Nc2cccn([C@H]3CCC[C@@H](C#N)C3)c2=O)nc2c(C(=O)NC3CCC3(F)F)cnn12 (stereo partly shown) [Compound I-330] | < 0.1 µM |
| CNc1cc(-c2cn([C@H]3CCOC[C@H]3OC)c3ncccc23)nc2c(C(=O)N[C@H]3CC[C@@H]3F)cnn12 [Compound I-796] | < 0.1 µM |
| CNc1cc(-c2cnc3n([C@@H]4CCOC4)cccc2-3)nc2c(C(=O)NC3CC[C@@H]3OC)cnn12 (stereo partly shown) [Compound I-995] | < 0.1 µM |

| SMILES | IC50 |
| --- | --- |
| CNc1cc(Nc2cccn(C3COC3)c2=O)nc2c(C(=O)N[C@@H]3CCC3(F)F)cnn12 [Compound I-282] | < 0.1 µM |
| O=C(N[C@@H]1CCC1(F)F)c1cnn2c3c(c(Nc4cccn([C@H]5[C@@H]6COC[C@@H]65)c4=O)nc12)OCCN3 [Compound I-769] | < 0.1 µM |
| CNc1cc(Nc2cccn([C@H]3C[C@@H]3F)c2=O)nc2c(C(=O)N[C@@H]3CCC3(F)F)cnn12 [Compound I-279] | < 0.1 µM |
| CNc1cc(Nc2cccn(C(C)C)c2=O)nc2c(C(=O)N[C@@H]3CC[C@@]3(C)O)cnn12 [Compound I-341] | < 0.1 µM |
| CNc1cc(Nc2cccn([C@H]3CCC[C@@](C)(O)C3)c2=O)nc2c(C(=O)N[C@@H]3C[C@@H]3F)cnn12 [Compound I-129] | < 0.1 µM |
| CNc1cc(Nc2cccn([C@H]3[C@@H]4COC[C@@H]43)c2=O)nc2c(C(=O)NC3CCC3(F)F)cnn12 (stereo partly shown) [Compound I-306] | < 0.1 µM |
| CNc1cc(-c2cn([C@H]3COC[C@H]3F)c3ncccc23)nc2c(C(=O)N[C@H]3COC[C@H]3O)cnn12 [Compound I-726] | < 0.1 µM |
| CNc1cc(Nc2cccn(C3CCOCC3)c2=O)nc2c(C(=O)N[C@@H]3CC[C@@H]3F)cnn12 [Compound I-193] | < 0.1 µM |
| CNc1cc(-c2cnc3n([C@@H]4CCOC[C@H]4O)cccc2-3)nc2c(C(=O)N[C@@H]3C[C@@H]3F)cnn12 [Compound I-824] | < 0.1 µM |
| CNc1cc(-c2cnc3n([C@@H]4CCOC[C@H]4OC)cccc2-3)nc2c(C(=O)N[C@@H]3CC[C@H]3OC)cnn12 [Compound I-896] | < 0.1 µM |
| CNc1cc(Nc2cccn([C@@H]3C[C@H]3F)c2=O)nc2c(C(=O)NC3CCC3(F)F)cnn12 (stereo partly shown) [Compound I-274] | < 0.1 µM |
| CNc1cc(-c2cnc3n([C@H]4COC[C@@H]4O)cccc2-3)nc2c(C(=O)NC3CC3)cnn12 [Compound I-816] | < 0.1 µM |
| CNc1cc(Nc2cccn(C3CCOCC3)c2=O)nc2c(C(=O)NC3CCC3(F)F)cnn12 (stereo not shown) [Compound I-309] | < 0.1 µM |
| CNc1cc(-c2cn(CCOC)c3ncccc23)nc2c(C(=O)N[C@H]3CC[C@@H]3OC)cnn12 [Compound I-923] | < 0.1 µM |
| CNc1cc(-c2cn([C@H]3C[C@@H](COC)C3)c3ncccc23)nc2c(C(=O)N[C@H]3CC[C@@H]3OC)cnn12 [Compound I-933] | < 0.1 µM |
| CNc1cc(-c2cn(C3COC3)c3ncccc23)nc2c(C(=O)N[C@@H]3CCC3(F)F)cnn12 [Compound I-675] | < 0.1 µM |
| CNc1cc(Nc2cccn([C@H]3[C@@H]4COC[C@@H]43)c2=O)nc2c(C(=O)NC3CCC3)cnn12 [Compound I-142] | < 0.1 µM |
| CNc1cc(Nc2cccn([C@H]3C[C@H](OC)C3)c2=O)nc2c(C(=O)NC3CCC3(F)F)cnn12 (stereo partly shown) [Compound I-292] | < 0.1 µM |
